ChEMBL document CHEMBL4732143 (Eur J Med Chem, 2021)

Columns and labels:
[1] = biological target: T1, Sphingosine kinase 2 (Homo sapiens) (UniProt Q9NRA0); assay: Inhibition of recombinant human Sphk2 expressed in baculovirus infected Sf9 insect cells assessed as residual activity at 0.3 uM using d-erythro-sphingosine as substrate measured after 20 mins in presence of [gamma-32P]ATP by liquid scintillation counting analysis relative to control
T1 sequence (whole entry): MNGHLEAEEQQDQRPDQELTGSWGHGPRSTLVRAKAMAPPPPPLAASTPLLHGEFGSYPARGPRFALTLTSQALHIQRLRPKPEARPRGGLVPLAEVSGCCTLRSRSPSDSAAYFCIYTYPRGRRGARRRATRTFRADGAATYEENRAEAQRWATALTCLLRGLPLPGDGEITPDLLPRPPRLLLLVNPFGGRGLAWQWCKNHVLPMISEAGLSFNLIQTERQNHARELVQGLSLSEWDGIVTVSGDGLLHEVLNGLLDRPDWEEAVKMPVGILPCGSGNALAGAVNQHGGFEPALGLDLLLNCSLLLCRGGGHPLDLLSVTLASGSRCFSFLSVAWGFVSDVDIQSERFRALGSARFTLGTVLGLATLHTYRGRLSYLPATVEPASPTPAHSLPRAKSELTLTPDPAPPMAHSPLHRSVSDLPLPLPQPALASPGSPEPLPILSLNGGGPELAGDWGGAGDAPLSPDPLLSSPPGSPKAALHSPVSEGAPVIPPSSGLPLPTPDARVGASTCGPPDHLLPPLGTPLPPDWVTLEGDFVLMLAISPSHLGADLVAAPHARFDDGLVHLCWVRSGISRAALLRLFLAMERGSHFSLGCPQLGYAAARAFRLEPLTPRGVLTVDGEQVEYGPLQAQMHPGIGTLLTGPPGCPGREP

[2] = biological target: T2, Sphingosine kinase 2 (Homo sapiens, UniProt Q9NRA0); assay: Inhibition of recombinant human Sphk2 expressed in baculovirus infected Sf9 insect cells using d-erythro-sphingosine as substrate measured after 20 mins in presence of [gamma-32P]ATP by liquid scintillation counting analysis
T2 sequence (Q9NRA0 whole entry): T1 sequence (whole entry)

[3] = biological target: T1, Sphingosine kinase 2 (Homo sapiens); assay: Inhibition of Sphk2 in human U-937 cells using FTY720 as substrate measured after 2 hrs by LC-MS analysis; type: cell-based; conditions: dose 0.1-1 µM
[4] = biological target: T1, Sphingosine kinase 2 (Homo sapiens); assay: Inhibition of recombinant human Sphk2 expressed in yeast strain KYA1 assessed as increase in yeast growth measured after 24 hrs

Row | Compound | Activity [1] [%] | other results
1 | CCCCCCCCCn1cc(-c2noc(C[C@@H]3CCCN3C(=N)N)n2)c2ccccc21 | 98 | 
2 | CCCCCCCn1ccc2ccc(-c3noc([C@@H]4CCCN4C(=N)N)n3)cc21 | 103 | 
3 | CCCCCCCCn1cc(-c2noc([C@@H]3CCCN3C(=N)N)n2)c2ccccc21 | 73 | 
4 | CCCCCCCn1cc(-c2noc([C@@H]3CCCN3C(=N)N)n2)c2ccccc21 | 96 | 
5 | CCCCCCCCCCCn1cc(-c2noc([C@@H]3CCCN3C(=N)N)n2)c2ccccc21 | 79 | 
6 | CCCCCCCCCn1cc(-c2noc([C@@H]3CCCN3C(=N)N)n2)c2ccccc21 | 59 | 
7 | CCCCCCCCCCn1cc(-c2noc([C@@H]3CCCN3C(=N)N)n2)c2ccccc21 | 47 | Ki [2]: 300 nM
8 | CCCCOc1ccc2cc(-c3noc([C@@H]4CCCN4C(=N)N)n3)ccc2c1 | 95 | Ki [2]: 980 nM
9 | CCCCCCCCCCCCn1cc(-c2noc([C@@H]3CCCN3C(=N)N)n2)c2ccccc21 | 46 | Ki [2]: 290 nM

Continued, in another order:

Row | Activity [1] [%] | Compound | other results
10 | 87 | CCCCCCCCn1ccc2cc(-c3noc([C@@H]4CCCN4C(=N)N)n3)ccc21 | 
11 | 68 | CCCCCCCCCn1ccc2c(-c3noc([C@@H]4CCCN4C(=N)N)n3)cccc21 | 
12 | 93 | CCCCCCCCn1ccc2ccc(-c3noc([C@@H]4CCCN4C(=N)N)n3)cc21 | 
13 | 89 | CCCCCCCn1ccc2c(-c3noc([C@@H]4CCCN4C(=N)N)n3)cccc21 | 
14 | 25 | CCCCCCCCCn1ccc2cc(-c3noc([C@@H]4CCCN4C(=N)N)n3)ccc21 | Ki [2]: 90 nM; inhibition [3]: Dose-dependent effect; inhibition [4]: Dose-dependent effect
15 | 72 | CCCCCCn1ccc2cc(-c3noc([C@@H]4CCCN4C(=N)N)n3)ccc21 | 
16 | 84 | CCCCCCCCn1ccc2c(-c3noc([C@@H]4CCCN4C(=N)N)n3)cccc21 | 
17 | 31 | CCCCCCCCCCn1ccc2cc(-c3noc([C@@H]4CCCN4C(=N)N)n3)ccc21 | Ki [2]: 120 nM
18 | 68 | CCCCCCCCCCn1ccc2ccc(-c3noc([C@@H]4CCCN4C(=N)N)n3)cc21 | 
19 | 64 | CCCCCCCCCCn1ccc2c(-c3noc([C@@H]4CCCN4C(=N)N)n3)cccc21 | 
20 | 93 | CCCCCCCn1ccc2cc(-c3noc([C@@H]4CCCN4C(=N)N)n3)ccc21 | 
21 | 79 | CCCCCCCCCn1ccc2ccc(-c3noc([C@@H]4CCCN4C(=N)N)n3)cc21 | 
